Results as given in patent publication US8796289B2 (AbbVie Inc., priority 2011, dated 2014).
pKi: −log10 of the molar value.

What follows are molecules tested against GST-tagged-Wee1 kinase (Homo sapiens, UniProt P30291) (assay: Wee1 time-resolved fluorescence equilibrium binding assay (displacement of Oregon Green-labeled ATP-competitive kinase probe)).
Procedure: Wee1 kinase was assayed using a time-resolved fluorescence equilibrium binding assay monitoring displacement of a rapidly reversible Oregon Green-labeled ATP-competitive kinase probe (N-(2-(2-(2-(4-(4-(5-chloro-4-(2-(1-hydroxycyclobutyl)thiazol-5-yl)-1H-pyrrolo[2,3-b]pyridin-2-yl)phenyl)piperazin-1-yl)ethoxy)ethoxy)ethyl)-2′,7′-difluoro-3′,6′-dihydroxy-3-oxo-3H-spiro[isobenzofuran-1,9′-xanthene]-5-carboxamide) by competitive Wee1 inhibitors.

Chain of GST-tagged-Wee1 kinase (P30291 whole entry): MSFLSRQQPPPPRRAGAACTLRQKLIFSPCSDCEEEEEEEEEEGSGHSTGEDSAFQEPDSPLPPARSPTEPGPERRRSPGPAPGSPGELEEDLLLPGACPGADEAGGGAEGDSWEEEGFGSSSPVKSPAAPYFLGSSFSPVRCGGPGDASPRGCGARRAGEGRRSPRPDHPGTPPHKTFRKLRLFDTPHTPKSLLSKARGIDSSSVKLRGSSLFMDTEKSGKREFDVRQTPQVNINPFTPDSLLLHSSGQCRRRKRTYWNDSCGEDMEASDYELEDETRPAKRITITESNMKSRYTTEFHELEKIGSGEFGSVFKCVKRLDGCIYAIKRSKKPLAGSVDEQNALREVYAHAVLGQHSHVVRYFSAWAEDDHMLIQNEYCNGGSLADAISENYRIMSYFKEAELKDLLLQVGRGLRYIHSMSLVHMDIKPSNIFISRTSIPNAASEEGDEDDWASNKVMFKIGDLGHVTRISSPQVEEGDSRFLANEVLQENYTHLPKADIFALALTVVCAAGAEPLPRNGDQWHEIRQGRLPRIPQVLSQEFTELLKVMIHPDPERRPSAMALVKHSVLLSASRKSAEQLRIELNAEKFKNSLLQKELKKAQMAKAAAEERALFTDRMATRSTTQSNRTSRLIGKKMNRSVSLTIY

Question: How did the pKi turn out when `CCOc1cccc(-c2nn(-c3c(F)cccc3Cl)c(=O)c3cnc(Nc4ccc(N5CCN(C)CC5)cc4)nc23)n1` [Example 299, 6-(2-chloro-6-fluorophenyl)-8-(6-ethoxypyridin-2-yl)-2-{[4-(4-methylpiperazin-1-yl)phenyl]amino}pyrimido[4,5-d]pyridazin-5(6H)-one] was run?
Answer: 9.00

Question: How did the pKi turn out when `Cc1nn(-c2c(Cl)cccc2Cl)c(=O)c2cnc(Nc3ccc4c(c3)CN(C)C4)nc12` [Example 491, 6-(2,6-dichlorophenyl)-8-methyl-2-[(2-methyl-2,3-dihydro-1H-isoindol-5-yl)amino]pyrimido[4,5-d]pyridazin-5(6H)-one] was run?
Answer: 9.59

Question: With `CN1CCN(c2ccc(Nc3ncc4c(=O)n(-c5ccccc5)nc(-c5cccc(F)c5)c4n3)cc2)CC1` [Example 82, 8-(3-fluorophenyl)-2-{[4-(4-methylpiperazin-1-yl)phenyl]amino}-6-phenylpyrimido[4,5-d]pyridazin-5(6H)-one] as the molecule, how does the pKi read?
Answer: 8.05

Question: How did the pKi turn out when `CN1CCN(c2ccc(Nc3ncc4c(=O)n(-c5ncccc5Cl)nc(-c5ccccn5)c4n3)cc2)CC1` [Example 348, 6-(3-chloropyridin-2-yl)-2-{[4-(4-methylpiperazin-1-yl)phenyl]amino}-8-(pyridin-2-yl)pyrimido[4,5-d]pyridazin-5(6H)-one] was run?
Answer: 8.74

Question: How did the pKi turn out when `CCc1nn(-c2c(Cl)cccc2Cl)c(=O)c2cnc(Nc3ccc4c(c3)C(C)(C)NCC4)nc12` [Example 463, 6-(2,6-dichlorophenyl)-2-[(1,1-dimethyl-1,2,3,4-tetrahydroisoquinolin-7-yl)amino]-8-ethylpyrimido[4,5-d]pyridazin-5(6H)-one] was run?
Answer: 9.26

Question: With `CN1CCN(c2ccc(Nc3ncc4c(=O)n(-c5c(Cl)cncc5Cl)nc(-c5cncs5)c4n3)cc2)CC1` [Example 360, 6-(3,5-dichloropyridin-4-yl)-2-{[4-(4-methylpiperazin-1-yl)phenyl]amino}-8-(1,3-thiazol-5-yl)pyrimido[4,5-d]pyridazin-5(6H)-one] as the molecule, how does the pKi read?
Answer: 8.62

Question: With `O=c1c2cnc(Nc3ccc4c(c3)CNCC4)nc2c(-c2nccs2)nn1-c1c(Cl)cccc1Cl` [Example 346, 6-(2,6-dichlorophenyl)-2-(1,2,3,4-tetrahydroisoquinolin-7-ylamino)-8-(1,3-thiazol-2-yl)pyrimido[4,5-d]pyridazin-5(6H)-one] as the molecule, how does the pKi read?
Answer: 9.68

Question: How did the pKi turn out when `Cc1nn(-c2c(F)cccc2Cl)c(=O)c2cnc(Nc3ccc4c(c3)CN(C)CC43CC3)nc12` [Example 313, 6-(2-chloro-6-fluorophenyl)-8-methyl-2-[(2′-methyl-2′,3′-dihydro-1′H-spiro[cyclopropane-1,4′-isoquinolin]-7′-yl)amino]pyrimido[4,5-d]pyridazin-5(6H)-one] was run?
Answer: 8.59

Question: With `Cc1nn(-c2c(Cl)cccc2Cl)c(=O)c2cnc(Nc3ccc4c(c3)CNCC43CC3)nc12` [Example 300, 6-(2,6-dichlorophenyl)-2-(2′,3′-dihydro-1′H-spiro[cyclopropane-1,4′-isoquinolin]-7′-ylamino)-8-methylpyrimido[4,5-d]pyridazin-5(6H)-one] as the molecule, how does the pKi read?
Answer: 9.92

Question: `Cc1nn(-c2c(Cl)cccc2Cl)c(=O)c2cnc(Nc3ccc(N4C[C@H]5C[C@@H]4CN5)cc3)nc12` [Example 457, 2-({4-[(1R,4R)-2,5-diazabicyclo[2.2.1]hept-2-yl]phenyl}amino)-6-(2,6-dichlorophenyl)-8-methylpyrimido[4,5-d]pyridazin-5(6H)-one] was tested. Which pKi did it give?
Answer: 9.55

Question: How did the pKi turn out when `CN1CCN(c2ccc(Nc3ncc4c(=O)n(-c5c(Cl)cccc5Cl)nc(CO)c4n3)cc2)CC1` [Example 431, 6-(2,6-dichlorophenyl)-8-(hydroxymethyl)-2-{[4-(4-methylpiperazin-1-yl)phenyl]amino}pyrimido[4,5-d]pyridazin-5(6H)-one] was run?
Answer: 9.38

Question: `CN1CCN(c2ccc(Nc3ncc4c(=O)n(-c5c(Cl)cncc5Cl)nc(-c5ccncc5)c4n3)cc2)CC1` [Example 358, 6-(3,5-dichloropyridin-4-yl)-2-{[4-(4-methylpiperazin-1-yl)phenyl]amino}-8-(pyridin-4-yl)pyrimido[4,5-d]pyridazin-5(6H)-one] was tested. Which pKi did it give?
Answer: 9.33

Question: With `CC(C)n1nc(-c2ccccn2)c2nc(Nc3ccc(N4CCN(C)CC4)cc3)ncc2c1=O` [Example 272, 2-{[4-(4-methylpiperazin-1-yl)phenyl]amino}-6-(propan-2-yl)-8-(pyridin-2-yl)pyrimido[4,5-d]pyridazin-5(6H)-one] as the molecule, how does the pKi read?
Answer: 7.00

Question: With `CN1Cc2cc(Nc3ncc4c(=O)n(-c5c(Cl)cccc5Cl)ncc4n3)ccc2C2(CC2)C1` [Example 324, 6-(2,6-dichlorophenyl)-2-[(2′-methyl-2′,3′-dihydro-1′H-spiro[cyclopropane-1,4′-isoquinolin]-7′-yl)amino]pyrimido[4,5-d]pyridazin-5(6H)-one] as the molecule, how does the pKi read?
Answer: 9.70

Question: `O=c1c2cnc(Nc3ccc(N4CCNCC4)cc3)nc2c(-c2cccc(CN3CCCCC3)c2)nn1-c1c(Cl)cccc1Cl` [Example 237, 6-(2,6-dichlorophenyl)-2-{[4-(piperazin-1-yl)phenyl]amino}-8-[3-(piperidin-1-ylmethyl)phenyl]pyrimido[4,5-d]pyridazin-5(6H)-one] was tested. Which pKi did it give?
Answer: 9.70

Question: How did the pKi turn out when `C=CCn1nc(-c2ccc(-c3ncccn3)cc2)c2nc(Nc3ccc(N4CCN(C)CC4)cc3)ncc2c1=O` [Example 62, 6-allyl-2-{[4-(4-methylpiperazin-1-yl)phenyl]amino}-8-[4-(pyrimidin-2-yl)phenyl]pyrimido[4,5-d]pyridazin-5(6H)-one] was run?
Answer: 7.96

Question: How did the pKi turn out when `Cn1cnc(-c2nn(-c3ncccc3Cl)c(=O)c3cnc(Nc4ccc(N5CCNCC5)cc4)nc23)c1` [Example 350, 6-(3-chloropyridin-2-yl)-8-(1-methyl-1H-imidazol-4-yl)-2-{[4-(piperazin-1-yl)phenyl]amino}pyrimido[4,5-d]pyridazin-5(6H)-one] was run?
Answer: 8.74

Question: `CN1CCCC(n2nc(-c3ccccn3)c3nc(Nc4ccc(N5CCNCC5)cc4)ncc3c2=O)C1` (centres unmarked) [Example 334, 6-(1-methylpiperidin-3-yl)-2-{[4-(piperazin-1-yl)phenyl]amino}-8-(pyridin-2-yl)pyrimido[4,5-d]pyridazin-5(6H)-one] was tested. Which pKi did it give?
Answer: 6.19

Question: How did the pKi turn out when `Cc1nn(-c2c(Cl)cccc2Cl)c(=O)c2cnc(Nc3cccc(N4CCN(C)CC4)c3)nc12` [Example 511, 6-(2,6-dichlorophenyl)-8-methyl-2-{[3-(4-methylpiperazin-1-yl)phenyl]amino}pyrimido[4,5-d]pyridazin-5(6H)-one] was run?
Answer: 9.34

Question: How did the pKi turn out when `CCCc1nn(-c2ccccc2)c(=O)c2cnc(Nc3ccc(N4CCN(C)CC4)cc3)nc12` [Example 17, 2-{[4-(4-methylpiperazin-1-yl)phenyl]amino}-6-phenyl-8-propylpyrimido[4,5-d]pyridazin-5(6H)-one] was run?
Answer: 7.44

Question: `CN(C)CCn1cc(-c2nn(-c3c(Cl)cccc3Cl)c(=O)c3cnc(Nc4ccc(N5CCN(C)CC5)cc4)nc23)cn1` [Example 212, 6-(2,6-dichlorophenyl)-8-{1-[2-(dimethylamino)ethyl]-1H-pyrazol-4-yl}-2-{[4-(4-methylpiperazin-1-yl)phenyl]amino}pyrimido[4,5-d]pyridazin-5(6H)-one] was tested. Which pKi did it give?
Answer: 9.22

Question: With `Cc1nn(-c2ccccc2Cl)c(=O)c2cnc(Nc3ccc(NC4CCNCC4)cc3)nc12` [Example 526, 6-(2-chlorophenyl)-8-methyl-2-{[4-(piperidin-4-ylamino)phenyl]amino}pyrimido[4,5-d]pyridazin-5(6H)-one] as the molecule, how does the pKi read?
Answer: 9.32

Question: With `CCCc1nn(C)c(=O)c2cnc(Nc3ccc(N4CCN(C)CC4)cc3)nc12` [Example 11, 6-methyl-2-{[4-(4-methylpiperazin-1-yl)phenyl]amino}-8-propylpyrimido[4,5-d]pyridazin-5(6H)-one] as the molecule, how does the pKi read?
Answer: 6.14
